Laboratory results from PMC5201331, “Subchronic Toxicities of HZ1006, a Hydroxamate-Based Histone Deacetylase Inhibitor, in Beagle Dogs and Sprague-Dawley Rats” (International Journal of Environmental Research and Public …, 2016).

Tested on: Beagle dogs
Assay: Subchronic toxicity test in Beagle dogs: serum biochemistry
Type: in vivo
Settings: dogs
Protocol: HZ1006 was administered orally to dogs (four/sex/group) at doses of 80, 40, 20, 5 and 0 (control) mg/kg/day, and the dosage volume was 2 mL/kg. The dogs received test doses with the exact amounts on a weekly basis based on current body weights. […] The other dogs in the above groups were dissected on the planned days. For the other groups, half of the dogs were anatomized on d28 and the remaining half on d42.
The following indexes were examined for the dogs used in the study, twice during the pre-dosage period and on d14, d28 and d42. The following parameters were evaluated on d28 and d42 for the rats in the study:
The animal blood samples were collected in the tubes containing the coagulator and centrifuged at 500 g for 10 min; the supernatant was then collected into a new tube. The serum biochemistry indexes included the following: alanine aminotransferase (ALT), alkaline phosphatase (ALP), aspartate aminotransferase (AST), blood urea (BU), lactate dehydrogenase (LDH), total bilirubin (TBIL), creatinine (Crea), albumin (ALB), total protein (TP), triglycerides (TG), total cholesterol (TCH), γ-glutamyltranspeptidase (g-GT), glucose (GLU), creatine phosphokinase (CPK), uric acid (UA), phosphorus (P), and calcium (Ca^2+). The above parameters were analyzed using an Automatic Analyzer 7080 provided by Hitachi High-Technologies Corp. (Tokyo, Japan). An Na/K/Cl Analyzer EasyLyte PLUS from Medica Corp. (Bedford, MA, USA), was used to determine the levels of chloride (Cl^−), sodium (Na^+) and potassium (K^+) in the blood samples.

[1] = 20 mg/kg/day oral, d42 (recovery)
[2] = 40 mg/kg/day oral, d0 (pre-dose)
[3] = 40 mg/kg/day oral, d42 (recovery)
[4] = 80 mg/kg/day oral, d0 (pre-dose)
[5] = 80 mg/kg/day oral, d42 (recovery)

In the case of CCCCCCCNc1cc(/C=C/C(=O)NO)ccc1OCCN(CC)CC [HZ1006], the “ALP: Alkaline phosphatase” value (20 mg/kg/day oral, d28) is reported as 0.98 ± 0.27 µmol/s/L, the “ALT: Alanine aminotransferase” value (20 mg/kg/day oral, d28) is reported as 486 ± 90 nmol/s/L and the “AST: Aspartate aminotransferase” value (20 mg/kg/day oral, d28) is reported as 408 ± 57 nmol/s/L. For the same compound, the “BU: Blood urea” value (20 mg/kg/day oral, d28) was 5.37 ± 1.78 mmol/L, the “CPK: Creatine phosphokinase” value (20 mg/kg/day oral, d28) was 2.38 ± 0.53 µmol/s/L and the “CREA: Creatinine” value (20 mg/kg/day oral, d28) was 52.1 ± 10.3 µmol/L. For the same compound, the “LDH: Lactate dehydrogenase” value (20 mg/kg/day oral, d28) was 1.54 ± 0.74 µmol/s/L, the “TBIL: Total bilirubin” value (20 mg/kg/day oral, d28) was 2.29 ± 0.31 µmol/L and the “TCH: Total cholesterol” value (20 mg/kg/day oral, d28) was 3.95 ± 0.55 mmol/L. The “TG: Triglycerides” value (20 mg/kg/day oral, d28) was 0.34 ± 0.05 mmol/L, the “ALP: Alkaline phosphatase” value [1] was 1.00 ± 0.24 µmol/s/L and the “ALT: Alanine aminotransferase” value [1] was 523 ± 148 nmol/s/L. The “AST: Aspartate aminotransferase” value [1] was 412 ± 31 nmol/s/L, the “BU: Blood urea” value [1] was 4.05 ± 0.37 mmol/L and the “CPK: Creatine phosphokinase” value [1] was 2.17 ± 0.30 µmol/s/L. For the same compound, the “CREA: Creatinine” value [1] was 49.6 ± 0.6 µmol/L, the “LDH: Lactate dehydrogenase” value [1] was 2.28 ± 0.93 µmol/s/L and the “TBIL: Total bilirubin” value [1] was 1.88 ± 0.19 µmol/L. The “TCH: Total cholesterol” value [1] was 3.81 ± 0.18 mmol/L, the “TG: Triglycerides” value [1] was 0.33 ± 0.12 mmol/L and the “ALP: Alkaline phosphatase” value [2] was 1.62 ± 0.40 µmol/s/L. The “ALT: Alanine aminotransferase” value [2] was 526 ± 179 nmol/s/L, the “AST: Aspartate aminotransferase” value [2] was 462 ± 57 nmol/s/L and the “BU: Blood urea” value [2] was 3.95 ± 0.48 mmol/L. The “CPK: Creatine phosphokinase” value [2] was 3.27 ± 0.76 µmol/s/L, the “CREA: Creatinine” value [2] was 49.2 ± 6.2 µmol/L and the “LDH: Lactate dehydrogenase” value [2] was 3.39 ± 1.55 µmol/s/L. For the same compound, the “TBIL: Total bilirubin” value [2] was 2.24 ± 0.24 µmol/L, the “TCH: Total cholesterol” value [2] was 5.38 ± 1.95 mmol/L and the “TG: Triglycerides” value [2] was 0.41 ± 0.10 mmol/L. For the same compound, the “ALP: Alkaline phosphatase” value (40 mg/kg/day oral, d14) was 1.03 ± 0.32 µmol/s/L, the “ALT: Alanine aminotransferase” value (40 mg/kg/day oral, d14) was 433 ± 304 nmol/s/L and the “AST: Aspartate aminotransferase” value (40 mg/kg/day oral, d14) was 313 ± 23 nmol/s/L. For the same compound, the “BU: Blood urea” value (40 mg/kg/day oral, d14) was 4.52 ± 1.05 mmol/L, the “CPK: Creatine phosphokinase” value (40 mg/kg/day oral, d14) was 2.36 ± 0.19 µmol/s/L and the “CREA: Creatinine” value (40 mg/kg/day oral, d14) was 52.5 ± 6.1 µmol/L. The “LDH: Lactate dehydrogenase” value (40 mg/kg/day oral, d14) was 1.29 ± 0.68 µmol/s/L, the “TBIL: Total bilirubin” value (40 mg/kg/day oral, d14) was 1.81 ± 0.24 µmol/L and the “TCH: Total cholesterol” value (40 mg/kg/day oral, d14) was 4.47 ± 0.71 mmol/L. For the same compound, the “TG: Triglycerides” value (40 mg/kg/day oral, d14) was 0.41 ± 0.12 mmol/L, the “ALP: Alkaline phosphatase” value (40 mg/kg/day oral, d28) was 1.30 ± 0.24 µmol/s/L and the “ALT: Alanine aminotransferase” value (40 mg/kg/day oral, d28) was 347 ± 78 nmol/s/L. The “AST: Aspartate aminotransferase” value (40 mg/kg/day oral, d28) was 378 ± 71 nmol/s/L, the “BU: Blood urea” value (40 mg/kg/day oral, d28) was 4.66 ± 0.96 mmol/L and the “CPK: Creatine phosphokinase” value (40 mg/kg/day oral, d28) was 3.00 ± 0.94 µmol/s/L. The “CREA: Creatinine” value (40 mg/kg/day oral, d28) was 52.6 ± 9.8 µmol/L, the “LDH: Lactate dehydrogenase” value (40 mg/kg/day oral, d28) was 2.76 ± 2.49 µmol/s/L and the “TBIL: Total bilirubin” value (40 mg/kg/day oral, d28) was 2.04 ± 0.43 µmol/L. The “TCH: Total cholesterol” value (40 mg/kg/day oral, d28) was 4.66 ± 1.85 mmol/L, the “TG: Triglycerides” value (40 mg/kg/day oral, d28) was 0.43 ± 0.18 mmol/L and the “ALP: Alkaline phosphatase” value [3] was 1.34 ± 0.34 µmol/s/L. For the same compound, the “ALT: Alanine aminotransferase” value [3] was 514 ± 112 nmol/s/L, the “AST: Aspartate aminotransferase” value [3] was 468 ± 80 nmol/s/L and the “BU: Blood urea” value [3] was 4.87 ± 1.56 mmol/L. For the same compound, the “CPK: Creatine phosphokinase” value [3] was 3.00 ± 1.32 µmol/s/L, the “CREA: Creatinine” value [3] was 58.8 ± 2.0 µmol/L and the “LDH: Lactate dehydrogenase” value [3] was 3.50 ± 2.49 µmol/s/L. For the same compound, the “TBIL: Total bilirubin” value [3] was 1.88 ± 0.08 µmol/L, the “TCH: Total cholesterol” value [3] was 4.55 ± 1.10 mmol/L and the “TG: Triglycerides” value [3] was 0.45 ± 0.04 mmol/L. The “ALP: Alkaline phosphatase” value [4] was 1.62 ± 0.49 µmol/s/L, the “ALT: Alanine aminotransferase” value [4] was 591 ± 143 nmol/s/L and the “AST: Aspartate aminotransferase” value [4] was 493 ± 103 nmol/s/L. The “BU: Blood urea” value [4] was 4.38 ± 0.72 mmol/L, the “CPK: Creatine phosphokinase” value [4] was 3.24 ± 0.77 µmol/s/L and the “CREA: Creatinine” value [4] was 53.4 ± 5.2 µmol/L. For the same compound, the “LDH: Lactate dehydrogenase” value [4] was 2.71 ± 0.97 µmol/s/L, the “TBIL: Total bilirubin” value [4] was 2.64 ± 0.41 µmol/L and the “TCH: Total cholesterol” value [4] was 4.03 ± 1.04 mmol/L. For the same compound, the “TG: Triglycerides” value [4] was 0.38 ± 0.15 mmol/L, the “ALP: Alkaline phosphatase” value (80 mg/kg/day oral, d14) was 1.27 ± 1.15 µmol/s/L and the “ALT: Alanine aminotransferase” value (80 mg/kg/day oral, d14) was 312 ± 38 nmol/s/L. For the same compound, the “AST: Aspartate aminotransferase” value (80 mg/kg/day oral, d14) was 386 ± 104 nmol/s/L, the “BU: Blood urea” value (80 mg/kg/day oral, d14) was 4.66 ± 0.93 mmol/L and the “CPK: Creatine phosphokinase” value (80 mg/kg/day oral, d14) was 3.29 ± 1.86 µmol/s/L. For the same compound, the “CREA: Creatinine” value (80 mg/kg/day oral, d14) was 58.2 ± 4.8 µmol/L, the “LDH: Lactate dehydrogenase” value (80 mg/kg/day oral, d14) was 1.76 ± 1.85 µmol/s/L and the “TBIL: Total bilirubin” value (80 mg/kg/day oral, d14) was 2.74 ± 2.93 µmol/L. The “TCH: Total cholesterol” value (80 mg/kg/day oral, d14) was 4.62 ± 2.51 mmol/L, the “TG: Triglycerides” value (80 mg/kg/day oral, d14) was 0.56 ± 0.28 mmol/L and the “ALP: Alkaline phosphatase” value (80 mg/kg/day oral, d28) was 1.01 ± 0.27 µmol/s/L. The “ALT: Alanine aminotransferase” value (80 mg/kg/day oral, d28) was 307 ± 51 nmol/s/L, the “AST: Aspartate aminotransferase” value (80 mg/kg/day oral, d28) was 310 ± 59 nmol/s/L and the “BU: Blood urea” value (80 mg/kg/day oral, d28) was 5.25 ± 1.21 mmol/L. The “CPK: Creatine phosphokinase” value (80 mg/kg/day oral, d28) was 1.73 ± 0.24 µmol/s/L, the “CREA: Creatinine” value (80 mg/kg/day oral, d28) was 54.3 ± 8.9 µmol/L and the “LDH: Lactate dehydrogenase” value (80 mg/kg/day oral, d28) was 0.97 ± 0.30 µmol/s/L. The “TBIL: Total bilirubin” value (80 mg/kg/day oral, d28) was 2.19 ± 0.20 µmol/L, the “TCH: Total cholesterol” value (80 mg/kg/day oral, d28) was 4.16 ± 1.39 mmol/L and the “TG: Triglycerides” value (80 mg/kg/day oral, d28) was 0.45 ± 0.11 mmol/L. The “ALP: Alkaline phosphatase” value [5] was 0.99 ± 0.14 µmol/s/L, the “ALT: Alanine aminotransferase” value [5] was 549 ± 181 nmol/s/L and the “AST: Aspartate aminotransferase” value [5] was 460 ± 83 nmol/s/L. The “BU: Blood urea” value [5] was 4.93 ± 0.50 mmol/L, the “CPK: Creatine phosphokinase” value [5] was 2.86 ± 0.53 µmol/s/L and the “CREA: Creatinine” value [5] was 65.9 ± 11.3 µmol/L. For the same compound, the “TBIL: Total bilirubin” value [5] was 1.90 ± 0.23 µmol/L, the “TCH: Total cholesterol” value [5] was 3.52 ± 0.84 mmol/L and the “TG: Triglycerides” value [5] was 0.40 ± 0.14 mmol/L.
